In patent publication US7767812B2, “Crystals of pyrimidine compound and process for producing the same” (Eisai R&D Management Co., Ltd., priority 2005, dated 2010):

Assay: Solubility in Disintegration Test 2nd fluid (Test Example 1)
Details: approx. 50 mg in 500 mL Disintegration Test 2nd fluid (Japanese pharmacopoeia, 14th Edition), paddles 50 rpm, concentration by HPLC over time (FIG. 17); compared with crystal form B
Description: First, 500 mL of the 2nd fluid was stirred at 50 rpm with paddles (Toyama Co., Ltd.; DISSOLUTION TESTER), then after the crystals and amorphous compound were added, the solution was sampled at each time period. The sampled solutions were filtered through a filter (0.2 μm), and the concentration of 5-[2-amino-4-(2-furyl)pyrimidin-5-yl]-1-methylpyridin-2(1H)-one in the solution was measured by HPLC method. The conditions for HPLC method are shown below.
Column: CAPCELL PAK C18 AQ, S-5 μm, 4.6 mm ID×250 mm length (Shiseido, Japan)
Column temperature: a constant temperature around 30° C.
Detection wavelength: 262 nm
Solution A: acetonitrile/water/1M ammonium acetate (10:1000:1, v/v/v)
Solution B: acetonitrile/water/1M ammonium acetate (900:100:1, v/v/v)

| SMILES | solubility |
| --- | --- |
| Cn1cc(-c2cnc(N)nc2-c2ccco2)ccc1=O.O [hydrate crystals, 5-[2-amino-4-(2-furyl)pyrimidin-5-yl]-1-methylpyridin-2(1H)-one hydrate] | superior in solubility than the crystal form B |
| Cn1cc(-c2cnc(N)nc2-c2ccco2)ccc1=O [crystal form C, 5-[2-amino-4-(2-furyl)pyrimidin-5-yl]-1-methylpyridin-2(1H)-one] | superior in solubility than the crystal form B |
